Results on five compounds are retold here after the NIST ThermoML archive (doi:10.1021/je700535q).

Each structure is given as a SMILES string.

This data set is described as follows: xn = mol fraction of the nth substance listed. The following applies: 101 kPa, Liquid, x1 = 0.

In the case of `c1ccc2c(c1)sc1ccccc12` [dibenzothiophene] + CCCCCCCCCCCCCC, the binary diffusion coefficient runs as follows: (333.2 K) 1.06e-09 m2/s; (353.2 K) 1.41e-09 m2/s; (393.2 K) 2.13e-09 m2/s; (413.2 K) 2.61e-09 m2/s; (423.2 K) 3.14e-09 m2/s; (433.2 K) 3.41e-09 m2/s. Further, the binary diffusion coefficient runs as follows: (453.2 K) 3.96e-09 m2/s; (463.2 K) 5.01e-09 m2/s.

For the compound `c1ccc2cc3ccccc3cc2c1` [anthracene] + CCCCCCCCCCCCCC, the binary diffusion coefficient runs as follows: (333.2 K) 9.4e-10 m2/s; (353.2 K) 1.36e-09 m2/s; (373.2 K) 1.38e-09 m2/s; (393.2 K) 2.03e-09 m2/s; (433.2 K) 3.43e-09 m2/s; (443.2 K) 4.57e-09 m2/s. Also, the binary diffusion coefficient (453.2 K) turned out to be 5.56e-09 m2/s.

For the compound `c1ccc2ccccc2c1` [naphthalene] + CCCCCCCCCCCCCC, the binary diffusion coefficient reads like this: (313.2 K) 1.03e-09 m2/s; (333.2 K) 1.42e-09 m2/s; (353.2 K) 1.86e-09 m2/s; (373.2 K) 2.28e-09 m2/s; (418.2 K) 3.69e-09 m2/s; (433.2 K) 4.64e-09 m2/s. Further, the binary diffusion coefficient (453.2 K) came out at 5.56e-09 m2/s.

Turning to `c1ccc2nc3ccccc3cc2c1` [acridine] + CCCCCCCCCCCCCC, the binary diffusion coefficient (333.2 K) was determined as 1.27e-09 m2/s; the binary diffusion coefficient (353.2 K) was 1.55e-09 m2/s; the binary diffusion coefficient (373.2 K) is 2e-09 m2/s; the binary diffusion coefficient (393.2 K) came to 2.4e-09 m2/s; the binary diffusion coefficient (413.2 K) turned out to be 2.93e-09 m2/s; the binary diffusion coefficient (423.2 K) was determined as 3.74e-09 m2/s. Also, the binary diffusion coefficient is, setting by setting: (453.2 K) 3.96e-09 m2/s; (473.2 K) 5.08e-09 m2/s.

On to `c1ccc2sccc2c1` [benzo[b]thiophene] + CCCCCCCCCCCCCC, for which the binary diffusion coefficient amounted to 1.19e-09 m2/s (333.2 K); 1.65e-09 m2/s (353.2 K); 2.1e-09 m2/s (373.2 K); 2.51e-09 m2/s (393.2 K); 3.19e-09 m2/s (413.2 K); 3.83e-09 m2/s (423.2 K). Also, the binary diffusion coefficient (453.2 K) is 4.77e-09 m2/s.
